From US20210115104A1, “AMYLIN ANALOGUES” (Zealand Pharma A/S, priority 2015, published 2021)
*1 amine or outer side, *2 acyl side, *3 side chain or, on linkers, in order; H or OH if unused. Where a SMILES comes first, the peptide text is derived from it. Bridges are numbered along the chain shown (N, C = ends). [ ]: non-standard residue; d: D form. The star is where a group is joined. C20 diacid = O=C(O)CCCCCCCCCCCCCCCCCCC(=O)*; γGlu = O=C(O)[C@H](CCC(=O)[*:2])N[*:1]; Hyp = O=C(O)[C@@H]1C[C@@H](O)CN1; NMeI = CC[C@H](C)[C@H](NC)C(=O)O; Aad = N[C@@H](CCCC(=O)O)C(=O)O; Sar = CNCC(=O)O

Columns and labels:
[1] = Assessment of chemical stability (RP-HPLC normalized purity); type: physicochemical; settings: 7 days, 40° C., Table 1; for Normalized purity after 7 days, 40° C., pH 4: pH 4, 0.2 mg/ml; for Normalized purity after 7 days, 40° C., pH 6: pH 6, 0.2 mg/ml; for Normalized purity after 7 days, 40° C., pH 7.5: pH 7.5, 0.2 mg/ml; for Normalized purity after 7 days, 40° C., pH 9: pH 9, 0.2 mg/ml
Procedure, shortened: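 Peptides at 0.2 mg/ml in water adjusted to pH 4, 6, 7.5 or 9, incubated at 40° C for 7 days. Main-peak area-% by RP-HPLC (C8 ammonium formate or C18 TFA gradient, UV 220 nm), normalized to T=0 as 100.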

[2] = molecular target: T1, human amylin receptor 3 (hAMYR3), hCTR2 co-expressed with hRAMP3 (Homo sapiens, UniProt O60896+P30988); test: hAMYR3 cAMP assay (AlphaScreen) in COS7 cells; type: cell-based; settings: cAMP induction, COS7 cells expressing hAMYR3; Table 1; read-out: hAMYR3 EC50
T1 construct: expressed in transfected cells
T1 sequence (P30988 25-474): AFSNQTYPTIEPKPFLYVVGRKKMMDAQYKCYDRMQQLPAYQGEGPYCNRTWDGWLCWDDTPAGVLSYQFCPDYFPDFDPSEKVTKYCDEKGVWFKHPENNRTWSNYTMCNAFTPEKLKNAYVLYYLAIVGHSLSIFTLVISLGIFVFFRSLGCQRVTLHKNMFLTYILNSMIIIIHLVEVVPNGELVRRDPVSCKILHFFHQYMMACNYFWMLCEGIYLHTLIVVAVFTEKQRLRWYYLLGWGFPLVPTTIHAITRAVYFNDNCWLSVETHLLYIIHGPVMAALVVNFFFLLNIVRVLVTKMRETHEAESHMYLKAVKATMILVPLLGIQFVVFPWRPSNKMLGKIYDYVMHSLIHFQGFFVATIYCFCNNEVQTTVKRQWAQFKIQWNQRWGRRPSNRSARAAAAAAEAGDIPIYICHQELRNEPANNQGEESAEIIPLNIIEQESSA
T1 sequence (O60896 24-148 partner): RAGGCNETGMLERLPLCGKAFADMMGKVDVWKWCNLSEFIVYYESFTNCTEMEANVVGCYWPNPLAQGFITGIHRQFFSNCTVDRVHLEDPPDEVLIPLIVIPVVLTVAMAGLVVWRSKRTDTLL
Procedure, shortened: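 Stable COS7 clone co-expressing hCTR2 and hRAMP3 was exposed to increasing peptide concentrations in Tyrode buffer (pH 7.4) with 100 µM IBMX and 0.1% casein for 15 min at 37 °C. Lysate cAMP was measured by AlphaScreen; EC50 came from 4-parameter logistic fitting.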

[3] = molecular target: T2, human calcitonin receptor (hCTR2) (Homo sapiens, UniProt P30988); test: hCTR2 cAMP assay (AlphaScreen) in COS7 cells; type: cell-based; settings: cAMP induction, COS7 cells expressing hCTR2; Table 1; read-out: hCTR2 EC50
T2 construct: expressed in transfected cells
T2 sequence (P30988 25-474): T1 sequence (P30988 25-474)
Procedure, shortened: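 Stable hCTR2 clone in RAMP-naïve COS7 cells stimulated 15 min at 37 °C with increasing peptide concentrations in Tyrode buffer pH 7.4 containing IBMX and 0.1% casein. cAMP in lysates measured by AlphaScreen; EC50 from 4-parameter logistic fit.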

SMILES | Normalized purity after 7 days, 40° C., pH 4 [1] | Normalized purity after 7 days, 40° C., pH 6 [1] | Normalized purity after 7 days, 40° C., pH 7.5 [1] | Normalized purity after 7 days, 40° C., pH 9 [1] | EC50 [2] [nM] | EC50 [3] [nM]
CC[C@H](C)[C@@H](C(=O)N[C@@H](CC(C)C)C(=O)N[C@@H](CO)C(=O)N[C@@H](CO)C(=O)N[C@H](C(=O)N[C@@H](CCC(=O)O)C(=O)N[C@H](C(=O)NCC(=O)N[C@@H](CO)C(=O)N[C@@H](CO)C(=O)N[C@H](C(=O)N1C[C@H](O)C[C@H]1C(N)=O)[C@@H](C)O)C(C)C)[C@@H](C)O)N(C)C(=O)[C@H](C)NC(=O)CN(C)C(=O)[C@H](Cc1ccccc1)NC(=O)[C@H](CO)NC(=O)[C@H](CO)NC(=O)[C@H](CCCNC(=N)N)NC(=O)[C@@H](NC(=O)[C@H](CC(C)C)NC(=O)[C@H](Cc1ccccc1)NC(=O)[C@H](CC(=O)O)NC(=O)[C@H](C)NC(=O)[C@H](CC(C)C)NC(=O)[C@H](CCCNC(=N)N)NC(=O)[C@H](CCC(=O)O)NC(=O)[C@@H](NC(=O)[C@H](C)NC(=O)[C@@H]1CSSC[C@H](NC(=O)[C@H](CCCNC(=N)N)NC(=O)CC[C@H](NC(=O)CCCCCCCCCCCCCCCCCCC(=O)O)C(=O)O)C(=O)NCC(=O)N[C@@H]([C@@H](C)O)C(=O)N[C@@H](C)C(=O)N[C@@H]([C@@H](C)O)C(=O)N1)[C@@H](C)O)[C@@H](C)O [Compound 41, [19CD]-isoGlu-R-C( )-GTAT-C( )-ATERLADFLTRSSF-Gly(Me)-A-Ile(Me)-LSSTEVGSST-Hyp-NH2] ({C20 diacid-γGlu}-RCGTATCATERLADFLTRSSF[Sar]A[NMeI]LSSTEVGSST[Hyp]-NH2; disulfide 2-7) | B (B = 70-90%) | A (A = >90%) | A (A = >90%) | A (A = >90%) | 0.34 | 0.15
CC[C@H](C)[C@@H](C(=O)N[C@@H](CC(C)C)C(=O)N[C@@H](CO)C(=O)N[C@@H](CO)C(=O)N[C@H](C(=O)N[C@@H](CCC(=O)O)C(=O)N[C@H](C(=O)NCC(=O)N[C@@H](CO)C(=O)N[C@@H](CO)C(=O)N[C@H](C(=O)N1C[C@H](O)C[C@H]1C(N)=O)[C@@H](C)O)C(C)C)[C@@H](C)O)N(C)C(=O)[C@H](C)NC(=O)CN(C)C(=O)[C@H](Cc1ccccc1)NC(=O)[C@H](CO)NC(=O)[C@H](CO)NC(=O)[C@H](CCCNC(=N)N)NC(=O)[C@@H](NC(=O)[C@H](CC(C)C)NC(=O)[C@H](Cc1ccccc1)NC(=O)[C@H](CCCC(=O)O)NC(=O)[C@H](C)NC(=O)[C@H](CC(C)C)NC(=O)[C@H](CCCNC(=N)N)NC(=O)[C@H](CCC(=O)O)NC(=O)[C@@H](NC(=O)[C@H](C)NC(=O)[C@@H]1CSSC[C@H](NC(=O)[C@H](CCCNC(=N)N)NC(=O)CC[C@H](NC(=O)CCCCCCCCCCCCCCCCCCC(=O)O)C(=O)O)C(=O)NCC(=O)N[C@@H]([C@@H](C)O)C(=O)N[C@@H](C)C(=O)N[C@@H]([C@@H](C)O)C(=O)N1)[C@@H](C)O)[C@@H](C)O [Compound 43, [19CD]-isoGlu-R-C( )-GTAT-C( )-ATERLA-Aad-FLTRSSF-Gly(Me)-A-Ile(Me)-LSSTEVGSST-Hyp-NH2] ({C20 diacid-γGlu}-RCGTATCATERLA[Aad]FLTRSSF[Sar]A[NMeI]LSSTEVGSST[Hyp]-NH2; disulfide 2-7) | A (A = >90%) | A (A = >90%) | A (A = >90%) | A (A = >90%) | 0.35 | 0.22
CC[C@H](C)[C@@H](C(=O)N[C@@H](CC(C)C)C(=O)N[C@@H](CO)C(=O)N[C@@H](CO)C(=O)N[C@H](C(=O)N[C@@H](CCC(=O)O)C(=O)N[C@H](C(=O)NCC(=O)N[C@@H](CO)C(=O)N[C@@H](CC(N)=O)C(=O)N[C@H](C(=O)N1CCC[C@H]1C(N)=O)[C@@H](C)O)C(C)C)[C@@H](C)O)N(C)C(=O)[C@H](C)NC(=O)CN(C)C(=O)[C@H](Cc1ccccc1)NC(=O)[C@H](CO)NC(=O)[C@H](CO)NC(=O)[C@H](CCCNC(=N)N)NC(=O)[C@H](CCC(N)=O)NC(=O)[C@H](CC(C)C)NC(=O)[C@H](Cc1ccccc1)NC(=O)[C@H](CC(=O)O)NC(=O)[C@H](C)NC(=O)[C@H](CC(C)C)NC(=O)[C@H](CCCNC(=N)N)NC(=O)[C@H](CCC(N)=O)NC(=O)[C@@H](NC(=O)[C@H](C)NC(=O)[C@@H]1CSSC[C@H](NC(=O)[C@H](CCCNC(=N)N)NC(=O)CC[C@H](NC(=O)CCCCCCCCCCCCCCCCCCC(=O)O)C(=O)O)C(=O)N[C@@H](CC(N)=O)C(=O)N[C@@H]([C@@H](C)O)C(=O)N[C@@H](C)C(=O)N[C@@H]([C@@H](C)O)C(=O)N1)[C@@H](C)O [Compound 65, [19CD]-isoGlu-R-C( )-NTAT-C( )-ATQRLADFLQRSSF-Gly(Me)-A-Ile(Me)-LSSTEVGSNTP-NH2] ({C20 diacid-γGlu}-RCNTATCATQRLADFLQRSSF[Sar]A[NMeI]LSSTEVGSNTP-NH2; disulfide 2-7) | A (A = >90%) | A (A = >90%) | A (A = >90%) | A (A = >90%) | 0.26 | 0.14
CC[C@H](C)[C@@H](C(=O)N[C@@H](CC(C)C)C(=O)N[C@@H](CO)C(=O)N[C@@H](CO)C(=O)N[C@H](C(=O)N[C@@H](CCC(=O)O)C(=O)N[C@H](C(=O)NCC(=O)N[C@@H](CO)C(=O)N[C@@H](CO)C(=O)N[C@H](C(=O)N1C[C@H](O)C[C@H]1C(N)=O)[C@@H](C)O)C(C)C)[C@@H](C)O)N(C)C(=O)[C@H](C)NC(=O)CN(C)C(=O)[C@H](Cc1ccccc1)NC(=O)[C@H](CO)NC(=O)[C@H](CO)NC(=O)[C@H](CCCNC(=N)N)NC(=O)[C@H](CCC(N)=O)NC(=O)[C@H](CC(C)C)NC(=O)[C@H](Cc1ccccc1)NC(=O)[C@H](Cc1c[nH]cn1)NC(=O)[C@H](C)NC(=O)[C@H](CC(C)C)NC(=O)[C@H](CCCNC(=N)N)NC(=O)[C@H](CCC(N)=O)NC(=O)[C@@H](NC(=O)[C@H](C)NC(=O)[C@@H]1CSSC[C@H](NC(=O)[C@H](CCCNC(=N)N)NC(=O)CC[C@H](NC(=O)CCCCCCCCCCCCCCCCCCC(=O)O)C(=O)O)C(=O)N[C@@H](CC(N)=O)C(=O)N[C@@H]([C@@H](C)O)C(=O)N[C@@H](C)C(=O)N[C@@H]([C@@H](C)O)C(=O)N1)[C@@H](C)O [Compound 69, [19CD]-isoGlu-R-C( )-NTAT-C( )-ATQRLAHFLQRSSF-Gly(Me)-A-Ile(Me)-LSSTEVGSST-Hyp-NH2] ({C20 diacid-γGlu}-RCNTATCATQRLAHFLQRSSF[Sar]A[NMeI]LSSTEVGSST[Hyp]-NH2; disulfide 2-7) | A (A = >90%) | A (A = >90%) | B (B = 70-90%) | B (B = 70-90%) | 0.17 | 0.12
CC[C@H](C)[C@@H](C(=O)N[C@@H](CC(C)C)C(=O)N[C@@H](CO)C(=O)N[C@@H](CO)C(=O)N[C@H](C(=O)N[C@@H](CCC(=O)O)C(=O)N[C@H](C(=O)NCC(=O)N[C@@H](CO)C(=O)NCC(=O)N[C@H](C(=O)N1CCC[C@H]1C(N)=O)[C@@H](C)O)C(C)C)[C@@H](C)O)N(C)C(=O)[C@H](C)NC(=O)CN(C)C(=O)[C@H](Cc1ccccc1)NC(=O)[C@H](CO)NC(=O)[C@H](CO)NC(=O)[C@H](CCCNC(=N)N)NC(=O)[C@H](CCC(N)=O)NC(=O)[C@H](CC(C)C)NC(=O)[C@H](Cc1ccccc1)NC(=O)[C@H](CC(=O)O)NC(=O)[C@H](C)NC(=O)[C@H](CC(C)C)NC(=O)[C@H](CCCNC(=N)N)NC(=O)[C@H](CCC(N)=O)NC(=O)[C@@H](NC(=O)[C@H](C)NC(=O)[C@@H]1CSSC[C@H](NC(=O)[C@H](CCCNC(=N)N)NC(=O)CC[C@H](NC(=O)CCCCCCCCCCCCCCCCCCC(=O)O)C(=O)O)C(=O)N[C@@H](CC(N)=O)C(=O)N[C@@H]([C@@H](C)O)C(=O)N[C@@H](C)C(=O)N[C@@H]([C@@H](C)O)C(=O)N1)[C@@H](C)O [Compound 80, [19CD]-isoGlu-R-C( )-NTAT-C( )-ATQRLADFLQRSSF-Gly(Me)-A-Ile(Me)-LSSTEVGSGTP-NH2] ({C20 diacid-γGlu}-RCNTATCATQRLADFLQRSSF[Sar]A[NMeI]LSSTEVGSGTP-NH2; disulfide 2-7) | A (A = >90%) | A (A = >90%) | A (A = >90%) | A (A = >90%) | 0.28 | 0.13
